Reference: PubChem BioAssay AID2060893 (Molecular Pharmacology Branch, DTP, NCI, 2025)
Values belong to the molecule of their own block, whether it stands above or below them.

Tested on: K86415-001-R-J1-PDC complex spheroids, viability
Test: Anticancer human tumor K86415-001-R-J1-PDC patient-derived lung adenocarcinoma cell line growth inhibition [RAS]
Conditions: for IC50: curve of first compound; for viability, T/C: stronger effect = lower value
Procedure, shortened: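 Multi-cell-type spheroids: tumor cells plus HUVEC endothelial cells and mesenchymal stem cells. RAS-pathway inhibitors were combined with targeted agents, each dosed in half-log steps down from clinical Cmax, or from 10 microM when Cmax was unknown.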

[1] = second compound 0.000949 µM, first compound 0.0316 µM
[2] = second compound 0.000949 µM, first compound 0.1 µM
[3] = second compound 0.000949 µM, first compound 0.316 µM
[4] = second compound 0.000949 µM, first compound 1 µM
[5] = second compound 0.000949 µM, first compound 3.16 µM
[6] = second compound 0.000949 µM, first compound 10 µM
[7] = second compound 0.003 µM, first compound 0.0316 µM
[8] = second compound 0.003 µM, first compound 0.1 µM
[9] = second compound 0.003 µM, first compound 0.316 µM
[10] = second compound 0.003 µM, first compound 1 µM
[11] = second compound 0.003 µM, first compound 3.16 µM
[12] = second compound 0.003 µM, first compound 10 µM
[13] = second compound 0.00949 µM, first compound 0.0316 µM
[14] = second compound 0.00949 µM, first compound 0.1 µM
[15] = second compound 0.00949 µM, first compound 0.316 µM
[16] = second compound 0.00949 µM, first compound 1 µM
[17] = second compound 0.00949 µM, first compound 3.16 µM
[18] = second compound 0.00949 µM, first compound 10 µM
[19] = second compound 0.03 µM, first compound 0.0316 µM
[20] = second compound 0.03 µM, first compound 0.1 µM
[21] = second compound 0.03 µM, first compound 0.316 µM
[22] = second compound 0.03 µM, first compound 1 µM
[23] = second compound 0.03 µM, first compound 3.16 µM
[24] = second compound 0.03 µM, first compound 10 µM
[25] = second compound 0.0949 µM, first compound 0.0316 µM
[26] = second compound 0.0949 µM, first compound 0.1 µM
[27] = second compound 0.0949 µM, first compound 0.316 µM
[28] = second compound 0.0949 µM, first compound 1 µM
[29] = second compound 0.0949 µM, first compound 3.16 µM
[30] = second compound 0.0949 µM, first compound 10 µM
[31] = second compound 0.3 µM, first compound 0.0316 µM
[32] = second compound 0.3 µM, first compound 0.1 µM
[33] = second compound 0.3 µM, first compound 0.316 µM
[34] = second compound 0.3 µM, first compound 1 µM
[35] = second compound 0.3 µM, first compound 3.16 µM
[36] = second compound 0.3 µM, first compound 10 µM
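Also: spheroids exposed to agents for seven days before readout.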

- IC50 (second compound 0.00316 µM): < 31.6 nM
- IC50 (second compound 0.01 µM): < 31.6 nM
- IC50 (second compound 0.0316 µM): < 31.6 nM
- IC50 (second compound 0.1 µM): < 31.6 nM
- IC50 (second compound 0.316 µM): < 31.6 nM
- IC50 (second compound 1 µM): < 31.6 nM
SMILES: Cc1nc(N2CCC3(CC2)COC(C)C3N)c(CO)nc1Sc1ccnc(N)c1Cl (stereo unspecified) + C=CC(=O)N1CCN(c2nc(OCC3CCCN3C)nc3c(F)c(-c4nc(N)cc(C)c4C(F)(F)F)c(Cl)cc23)C(C)C1
- viability, T/C (second compound 0.00316 µM, first compound 0.0316 µM): 11.5%
- viability, T/C (second compound 0.00316 µM, first compound 0.1 µM): 8.95%
- viability, T/C (second compound 0.00316 µM, first compound 0.316 µM): 6.72%
- viability, T/C (second compound 0.00316 µM, first compound 1 µM): 5.03%
- viability, T/C (second compound 0.00316 µM, first compound 3.16 µM): 3.59%
- viability, T/C (second compound 0.00316 µM, first compound 10 µM): 4.75%
- viability, T/C (second compound 0.01 µM, first compound 0.0316 µM): 12.1%
- viability, T/C (second compound 0.01 µM, first compound 0.1 µM): 8.08%
- viability, T/C (second compound 0.01 µM, first compound 0.316 µM): 5.96%
- viability, T/C (second compound 0.01 µM, first compound 1 µM): 4.7%
- viability, T/C (second compound 0.01 µM, first compound 3.16 µM): 4.74%
- viability, T/C (second compound 0.01 µM, first compound 10 µM): 5.17%
- viability, T/C (second compound 0.0316 µM, first compound 0.0316 µM): 9.15%
- viability, T/C (second compound 0.0316 µM, first compound 0.1 µM): 6.95%
- viability, T/C (second compound 0.0316 µM, first compound 0.316 µM): 4.4%
- viability, T/C (second compound 0.0316 µM, first compound 1 µM): 3.81%
- viability, T/C (second compound 0.0316 µM, first compound 3.16 µM): 3.74%
- viability, T/C (second compound 0.0316 µM, first compound 10 µM): 3.64%
- viability, T/C (second compound 0.1 µM, first compound 0.0316 µM): 8.22%
- viability, T/C (second compound 0.1 µM, first compound 0.1 µM): 5.86%
- viability, T/C (second compound 0.1 µM, first compound 0.316 µM): 5.7%
- viability, T/C (second compound 0.1 µM, first compound 1 µM): 3.75%
- viability, T/C (second compound 0.1 µM, first compound 3.16 µM): 4.37%
- viability, T/C (second compound 0.1 µM, first compound 10 µM): 3.87%
- viability, T/C (second compound 0.316 µM, first compound 0.0316 µM): 7.37%
- viability, T/C (second compound 0.316 µM, first compound 0.1 µM): 6.35%
- viability, T/C (second compound 0.316 µM, first compound 0.316 µM): 4.21%
- viability, T/C (second compound 0.316 µM, first compound 1 µM): 4.09%
- viability, T/C (second compound 0.316 µM, first compound 3.16 µM): 4.08%
- viability, T/C (second compound 0.316 µM, first compound 10 µM): 3.28%
- viability, T/C (second compound 1 µM, first compound 0.0316 µM): 7.46%
- viability, T/C (second compound 1 µM, first compound 0.1 µM): 7.12%
- viability, T/C (second compound 1 µM, first compound 0.316 µM): 6.04%
- viability, T/C (second compound 1 µM, first compound 1 µM): 4.71%
- viability, T/C (second compound 1 µM, first compound 3.16 µM): 4.06%
- viability, T/C (second compound 1 µM, first compound 10 µM): 4.08%

- IC50 (second compound 0.000949 µM): < 31.6 nM
- IC50 (second compound 0.003 µM): < 31.6 nM
- IC50 (second compound 0.00949 µM): < 31.6 nM
- IC50 (second compound 0.03 µM): < 31.6 nM
- IC50 (second compound 0.0949 µM): < 31.6 nM
- IC50 (second compound 0.3 µM): < 31.6 nM
SMILES: CC(C)NCC(C(=O)N1CCN(c2ncnc3c2C(C)CC3O)CC1)c1ccc(Cl)cc1 (stereo unspecified) + CCn1c(-c2cccnc2C(C)OC)c2c3cc(ccc31)N1CCOC(CC(NC(=O)C(C(C)C)N(C)C(=O)C3(F)CCN(C(=O)C#CC(C)(C)N(C)C)CC3)C(=O)N3CCCC(N3)C(=O)OCC(C)(C)C2)C1
- viability, T/C [1]: 35.7%
- viability, T/C [2]: 32.2%
- viability, T/C [3]: 17.5%
- viability, T/C [4]: 23.3%
- viability, T/C [5]: 27.7%
- viability, T/C [6]: 2.82%
- viability, T/C [7]: 13.4%
- viability, T/C [8]: 10.9%
- viability, T/C [9]: 8.95%
- viability, T/C [10]: 8.63%
- viability, T/C [11]: 7.76%
- viability, T/C [12]: 2.54%
- viability, T/C [13]: 12.8%
- viability, T/C [14]: 9.52%
- viability, T/C [15]: 9.15%
- viability, T/C [16]: 9.63%
- viability, T/C [17]: 4.93%
- viability, T/C [18]: 3.21%
- viability, T/C [19]: 12.9%
- viability, T/C [20]: 10.5%
- viability, T/C [21]: 10.2%
- viability, T/C [22]: 8.95%
- viability, T/C [23]: 4.3%
- viability, T/C [24]: 3.21%
- viability, T/C [25]: 9.52%
- viability, T/C [26]: 9.03%
- viability, T/C [27]: 9.7%
- viability, T/C [28]: 10%
- viability, T/C [29]: 4.97%
- viability, T/C [30]: 2.94%
- viability, T/C [31]: 12.9%
- viability, T/C [32]: 12%
- viability, T/C [33]: 10.3%
- viability, T/C [34]: 6.44%
- viability, T/C [35]: 4.71%
- viability, T/C [36]: 2.26%

- IC50 (second compound 0.000949 µM): < 31.6 nM
- IC50 (second compound 0.003 µM): < 31.6 nM
- IC50 (second compound 0.00949 µM): < 31.6 nM
- IC50 (second compound 0.03 µM): < 31.6 nM
- IC50 (second compound 0.0949 µM): < 31.6 nM
- IC50 (second compound 0.3 µM): < 31.6 nM
SMILES: CC(=O)OC12COC1CC(O)C1(C)C(=O)C(O)C3=C(C)C(OC(=O)C(O)C(NC(=O)OC(C)(C)C)c4ccccc4)CC(O)(C(OC(=O)c4ccccc4)C21)C3(C)C (stereo unspecified) + CCn1c(-c2cc(N3CCN(C)CC3)cnc2C(C)OC)c2c3cc(ccc31)-c1csc(n1)CC(NC(=O)C1CC1C)C(=O)N1CCCC(N1)C(=O)OCC(C)(C)C2
- viability, T/C [1]: 26.9%
- viability, T/C [2]: 21.5%
- viability, T/C [3]: 17.2%
- viability, T/C [4]: 22.7%
- viability, T/C [5]: 25.3%
- viability, T/C [6]: 19%
- viability, T/C [7]: 19.2%
- viability, T/C [8]: 15.6%
- viability, T/C [9]: 15.1%
- viability, T/C [10]: 16.7%
- viability, T/C [11]: 15%
- viability, T/C [12]: 12.8%
- viability, T/C [13]: 9.53%
- viability, T/C [14]: 7.3%
- viability, T/C [15]: 7.91%
- viability, T/C [16]: 7.79%
- viability, T/C [17]: 5.97%
- viability, T/C [18]: 6.51%
- viability, T/C [19]: 5.56%
- viability, T/C [20]: 5.63%
- viability, T/C [21]: 4.4%
- viability, T/C [22]: 3.98%
- viability, T/C [23]: 2.48%
- viability, T/C [24]: 2.81%
- viability, T/C [25]: 3.04%
- viability, T/C [26]: 2.69%
- viability, T/C [27]: 2.48%
- viability, T/C [28]: 1.97%
- viability, T/C [29]: 2.21%
- viability, T/C [30]: 2.4%
- viability, T/C [31]: 2.05%
- viability, T/C [32]: 2.39%
- viability, T/C [33]: 1.97%
- viability, T/C [34]: 2.03%
- viability, T/C [35]: 2.06%
- viability, T/C [36]: 1.73%
